Assay results from patent US11071730B2, “Substituted 6-azabenzimidazole compounds” (Gilead Sciences, Inc., priority 2018, dated 2021).

What follows are molecules tested against human HPK1 (MAP4K1) (Homo sapiens (Human), UniProt Q92918) (assay: HPK1 IC50 Assay (TR-FRET biochemical kinase assay, STK S1 peptide substrate)). Conditions: recombinant human HPK1 kinase domain 0.15 nM, 10 μM ATP, 1 μM STK S1 peptide; geometric mean.
Method: The enzymatic activity of human HPK1 (MAP4K1) was monitored in a biochemical assay in the presence or absence of compounds and using a synthetic peptide substrate. An increase in phosphorylation of the peptide by HPK1 was indicative of its kinase activity.
Recombinant HPK1 kinase domain produced via baculovirus infection of insect cells was obtained from Proteros (Proteros Biostructures #PR-0322) and was pre-activated in the presence of 2 mM ATP (Sigma-Aldrich, cat #GE27-2056-01) and 2 mM magnesium chloride for 16 hours at 4° C. The protein reaction mixture was then loaded to a desalting column (Thermo Fisher Scientific, Cat #89889) to remove excess ATP. HPK1 was eluted with buffer containing 20 mM Tris (2-Amino-2-(hydroxymethyl)propane-1,3-diol) pH 8.0, 150 mM NaCl, 2 mM dithiothreitol and 5% glycerol, and was frozen at −80° C. for later use.
Ten nanoliters of test compounds dissolved in DMSO at various concentrations were dispensed into a 384-well ProxiPlate (PerkinElmer #6008289). Five microliters of a solution of recombinant HPK1 diluted in HPK1 kinase assay buffer (50 mM BES [N,N-Bis(2-hydroxyethyl)-2-aminoethanesulfonic acid], pH 7.0; 10 mM magnesium chloride; 0.01% Triton X-100; 1 mM dithiothreitol; 0.01% bovine serum albumin; 0.1 mM sodium orthovanadate) was added to the compound-containing plate and was incubated for 15 minutes at 25° C. Five microliters of a mixture of ATP (Sigma-Aldrich #A6559) and peptide substrate STK S1 (Cisbio #61ST1BLC) diluted in HPK1 kinase assay buffer was then added to start the reaction. Final concentrations were 0.15 nM for HPK1, 10 μM for ATP, and 1 μM for the STK S1 peptide substrate. The reaction mixture was incubated at 25° C. for 3 hours and was stopped with the addition of 10 μl of an EDTA (Ethylenediaminetetraacetic acid)-containing detection buffer (Cisbio #62SDBRDF) supplemented with Europium cryptate-labeled anti-phospho-serine/threonine antibodies (Cisbio #62ST1PEJ) and XL665-labeled streptavidin (Cisbio #610SAXLG). The mixture was incubated for 16 hours at room temperature and peptide phosphorylation was measured by time-resolved fluorescence energy transfer (665 nm/620 nm) on an Envision plate reader (PerkinElmer).
Data in Table 1 were normalized based on positive (staurosporine) and negative (DMSO) controls. Least squares curve fittings were performed using a four-parameter variable slope nonlinear regression model. IC50 is defined as the concentration of compound required to inhibit 50% of maximum phosphorylation. IC50 values from multiple experiments were averaged by geometric mean and the standard deviation was calculated.

human HPK1 (MAP4K1), sequence (Q92918 17-274): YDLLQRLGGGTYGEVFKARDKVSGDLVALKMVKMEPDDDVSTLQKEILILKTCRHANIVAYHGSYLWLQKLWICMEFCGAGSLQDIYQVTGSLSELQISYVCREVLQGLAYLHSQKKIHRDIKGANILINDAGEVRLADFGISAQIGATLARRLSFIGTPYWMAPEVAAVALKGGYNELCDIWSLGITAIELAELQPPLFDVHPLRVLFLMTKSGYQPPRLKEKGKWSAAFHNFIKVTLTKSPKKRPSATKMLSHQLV

Row | IC50 [nM] | SMILES
1 | 0.1 | CC(=O)N1CCC2(CC1)C(=O)N([C@H]1C[C@@H](N3CC4CCC(C4)C3)C1)c1cc(-c3cc4ncn(C(C)C)c4c(Nc4ccncc4F)n3)ccc12 [Example 181]
2 | 0.9 | CC(C)n1cnc2cc(-c3ccc4c(c3)N([C@H]3C[C@@H](N5CCC[C@@H](C)C5)C3)C(=O)C4(C)C)nc(Nc3ccncc3F)c21 [Example 191]
3 | 0.4 | CC(C)n1cnc2cc(-c3ccc4c(c3)N([C@H]3C[C@@H](N5CCC(C)(C)C5)C3)C(=O)C43CCN(C(=O)C4(CO)CC4)CC3)nc(Nc3ccncc3F)c21 [Example 135]
4 | 1.1 | CC(C)n1cnc2cc(-c3ccc4c(c3)N([C@H]3C[C@@H](N5CC[C@@H](C)C5)C3)C(=O)C4(C)C)nc(Nc3ccncc3F)c21 [Example 192]
5 | 0.3 | COCC(C)(C)C(=O)N1CCC2(CC1)C(=O)N([C@H]1C[C@@H](N3CCCCC3)C1)c1cc(-c3cc4ncn(C(C)C)c4c(Nc4ccncc4F)n3)ccc12 [Example 140]
6 | 0.4 | CC(C)n1cnc2cc(-c3ccc4c(c3)N([C@H]3C[C@@H](N5CCC(C)(C)C5)C3)C(=O)C43CCN(C(=O)c4ncco4)CC3)nc(Nc3ccncc3F)c21 [Example 159]

Continued, molecule first:

Row | SMILES | IC50 [nM]
7 | CC(C)n1cnc2cc(-c3ccc4c(c3)N([C@H]3C[C@@H](N5C[C@H]6CC[C@H]6C5)C3)C(=O)C43CCN(C(=O)C4(C)COC4)CC3)nc(Nc3ccncc3F)c21 [Example 110] | 0.2
8 | CC(C)n1cnc2cc(-c3ccc4c(c3)N([C@H]3C[C@@H](N5CC6CCC(C6)C5)C3)C(=O)C43CCN(C(=O)C(C)(C)CO)CC3)nc(Nc3ccncc3F)c21 [Example 127] | 0.07
9 | CC(C)n1cnc2cc(-c3ccc4c(c3)N([C@H]3C[C@@H](N5C[C@H]6CC[C@H]6C5)C3)C(=O)C43CCN(C(=O)[C@@H]4CCCO4)CC3)nc(Nc3ccncc3F)c21 [Example 111] | 0.08
10 | CC(=O)N1CCC2(CC1)C(=O)N([C@H]1C[C@@H](N3CCCCC3)C1)c1cc(-c3cc4ncn(C(C)C)c4c(Nc4cc(CO)ncc4F)n3)ccc12 [Example 98] | 1
11 | CC(C)n1cnc2cc(-c3ccc4c(c3)N([C@H]3C[C@@H](N5CC(C)(C)C5)C3)C(=O)C4(C)C)nc(Nc3cc(CO)ncc3F)c21 [Example 100] | 3.1

Same assay, conditions: recombinant human HPK1 kinase domain 0.15 nM, 10 μM ATP, 1 μM STK S1 peptide; geometric mean of multiple experiments

Row | IC50 [nM] | SMILES
12 | 2.5 | CCn1cnc2cc(-c3ccc4c(c3)N([C@H]3C[C@@H](N5CC(C)(C)C5)C3)C(=O)C4(C)C)nc(Nc3ccncc3F)c21 [Example 85]
13 | 2.2 | CC(C)n1cnc2cc(-c3ccc4c(c3)N([C@H]3C[C@@H](N5CCCCC5)C3)C(=O)[C@]4(C)O)nc(Nc3ccncc3F)c21 [Example 55B, 6-(4-((3-fluoropyridin-4-yl)amino)-3-isopropyl-3H-imidazo[4,5-c]pyridin-6-yl)-3-hydroxy-3-methyl-1-((1s,3s)-3-(piperidin-1-yl)cyclobutyl)indolin-2-one]
14 | 0.3 | [2H]C1([2H])N([C@H]2C[C@@H](N3C(=O)C(C)(C)c4ccc(-c5cc6ncn(C(C)C)c6c(Nc6ccncc6F)n5)cc43)C2)C([2H])([2H])C([2H])([2H])C([2H])([2H])C1([2H])[2H] [Example 63]
15 | 0.6 | COC(=O)N1CCC2(CC1)C(=O)N([C@H]1C[C@@H](N3CCCCC3)C1)c1cc(-c3cc4ncn(C(C)C)c4c(Nc4ccncc4F)n3)ccc12 [Example 30]
16 | 0.6 | CC(C)n1cnc2cc(-c3ccc4c(c3)N([C@H]3C[C@@H](N5CCCCC5)C3)C(=O)C43CCN(C(=O)C(C)(C)O)CC3)nc(Nc3ccncc3F)c21 [Example 3]
17 | 0.3 | CC(C)n1cnc2cc(-c3ccc4c(c3)N([C@H]3C[C@@H](N5CC6C(C5)C6(C)C)C3)C(=O)C4(C)C)nc(Nc3ccncc3F)c21 (stereo partly shown) [Example 60]

Row | SMILES | IC50 [nM]
18 | CC(C)n1cnc2cc(-c3ccc4c(c3)N([C@H]3C[C@@H](N5CC[C@](C)(F)C5)C3)C(=O)C43CCN(C4COC4)CC3)nc(Nc3ccncc3F)c21 [Example 86] | 0.6
19 | CC(C)n1cnc2cc(-c3ccc4c(c3)N([C@H]3C[C@@H](N5CC[C@H](F)C5)C3)C(=O)C43CCN(C4COC4)CC3)nc(Nc3ccncc3F)c21 [Example 46] | 1.1
